Results published in PMC5075699.
Several values for one entry are separate records, joined by “and”; a condition that tells them apart may be missing. Equal entries are not always repeated.

Assays:
nontransgenic mice = test: Pilot Morris water maze #1 (spatial learning and memory); conditions: for MWM training distance Trial*ISRIB (linear mixed effects regression model) / MWM training latency Trial*ISRIB (linear mixed effects regression model): vs vehicle; for MWM training latency Trial*ISRIB (linear mixed effects regression model): 6-7 month-old nontransgenic mice; for %Target Quadrant (percent time spent in target quadrant) / Crossing Frequency (number of platform crossings) / Latency to Target / Crossing Frequency: individual mice; for Distance / Latency: Fig 2A; for Crossing Frequency: Fig 2C
[1] = ISRIB plasma levels in satellite mice (pharmacokinetic data); conditions: 0.25 mpk i.p. (1% DMSO/saline), 2.5 hours post-administration, individual mouse, 0.25 mg/kg
[2] = 0.1 mpk i.p. after each training trial
[3] = 0.25 mpk i.p. after each training trial
[4] = 24-hour probe trial (Fig 2B), 0.1mpk
[5] = 24-hour probe trial (Fig 2B), 0.25mpk
[6] = 72-hour probe trial (Fig 2C), 0.1mpk
[7] = 72-hour probe trial (Fig 2C), 0.25mpk
[8] = ISRIB 0.1mpk, Trial 1, individual mice
[9] = ISRIB 0.1mpk, Trial 2, individual mice
[10] = ISRIB 0.1mpk, Trial 3, individual mice
[11] = ISRIB 0.1mpk, Trial 4, individual mice
[12] = ISRIB 0.25mpk, Trial 1, individual mice
[13] = ISRIB 0.25mpk, Trial 2, individual mice
[14] = ISRIB 0.25mpk, Trial 3, individual mice

O=C(COc1ccc(Cl)cc1)NC1CCC(NC(=O)COc2ccc(Cl)cc2)CC1 (stereo not shown) [ISRIB]
MWM training distance Trial*ISRIB (linear mixed effects regression model) (nontransgenic mice; [2]): -35 cm/day
MWM training latency Trial*ISRIB (linear mixed effects regression model) (nontransgenic mice; [2]): −1.2 sec/day
MWM training distance Trial*ISRIB (linear mixed effects regression model) (nontransgenic mice; [3]): -36 cm/day
MWM training latency Trial*ISRIB (linear mixed effects regression model) (nontransgenic mice; [3]): −0.9 sec/day
%Target Quadrant (percent time spent in target quadrant) (nontransgenic mice; [4]): 44.0932% and 16.8608% and 27.6206% and 29.7282% and 34.8863% and 38.4914% and 18.802% and 29.5064% and 21.1869% and 54.6312% and 23.8491% and 29.5618% and 18.2474% and 16.6944%
Crossing Frequency (number of platform crossings) (nontransgenic mice; [4]): 3 and 1 and 0 and 5 and 2
Latency to Target (nontransgenic mice; [4]): 15.4154 and 14.3143 and 9.776 and 14.281 and 10.9109 and 23.8572 and 8.075 and 28.4618 and 6.173 and 49.9833 and 54.0207 and 5.439
%Target Quadrant (percent time spent in target quadrant) (nontransgenic mice; [5]): 41.7083% and 28.508% and 15.9179% and 23.35% and 35.33% and 30.3383% and 37.9922% and 36.7721% and 24.4038% and 36.5502% and 36.6057% and 35.6628% and 17.3045% and 11.2035% and 27.787%
Crossing Frequency (number of platform crossings) (nontransgenic mice; [5]): 4 and 1 and 2 and 3 and 5
Latency to Target (nontransgenic mice; [5]): 12.5459 and 7.174 and 15.2486 and 19.2526 and 12.7795 and 12.9463 and 6.24 and 43.31 and 13.5135 and 13.6804 and 10.4438 and 8.842 and 6.84 and 29.0624 and 19.3861
%Target Quadrant (percent time spent in target quadrant) (nontransgenic mice; [6]): 24.3483% and 20.0222% and 43.7604% and 8.4304% and 14.8641% and 36.883% and 28.6744% and 19.3012% and 32.6678% and 33.9434% and 13.6439% and 27.6206% and 18.9684% and 18.4692% and 26.345%
Latency to Target (nontransgenic mice; [6]): 47.2473 and 25.4922 and 4.571 and 12.4458 and 24.0908 and 40.0734 and 23.29 and 28.6286 and 42.042 and 38.3383 and 5.506 and 17.9513
%Target Quadrant (percent time spent in target quadrant) (nontransgenic mice; [7]): 45.4798% and 27.066% and 23.0727% and 47.7537% and 35.4409% and 31.5031% and 40.9318% and 46.4781% and 25.5685% and 36.6057% and 27.898% and 43.3167% and 22.3516% and 17.7482% and 21.6861%
Latency to Target (nontransgenic mice; [7]): 9.843 and 17.3507 and 7.741 and 43.2432 and 4.972 and 20.1201 and 23.7237 and 4.638 and 6.24 and 11.4448 and 27.027 and 19.4194
latency to target and crossing frequency vs vehicle (nontransgenic mice; 72-hour probe trial, one-way ANOVA): no significant improvement
Distance (nontransgenic mice; [8]): 2362.83 and 2250.62 and 2496.09 and 1947.39 and 1168.96 and 2236.97 and 2411.54 and 2035.59 and 1921.1 and 2456.98 and 2337.83 and 2068.76 and 2366.51 and 2250.12 and 2342.92
Latency (nontransgenic mice; [8]): 120.12 and 115.716 and 120.153 (11×) and 70.7374 and 112.312
Distance (nontransgenic mice; [9]): 2488.72 and 412.271 and 2629.01 and 582.153 and 2113.12 and 2245.93 and 2084.31 and 208.443 and 322.031 and 2551.61 and 1958.47 and 2254.18 and 2157.45 and 1870.02 and 1903.66
Latency (nontransgenic mice; [9]): 120.153 (7×) and 20.1868 and 53.2199 and 101.501 and 119.653 and 16.016 and 18.5852 and 101.535 and 100.467
Distance (nontransgenic mice; [10]): 96.0203 and 1493.55 and 655.096 and 2193.26 and 428.034 and 2346.49 and 668.274 and 682.153 and 2384.94 and 600.87 and 1974.12 and 1289.33 and 2210.56 and 216.348 and 165.502
Latency (nontransgenic mice; [10]): 7.307 and 72.6059 and 29.1291 and 120.153 (6×) and 25.7925 and 43.31 and 33.8338 and 32.666 and 11.8785 and 10.01
Distance (nontransgenic mice; [11]): 1924.82 and 804.911 and 451.376 and 688.986 and 824.577 and 691.966 and 1226.74 and 1849.83 and 378.165 and 840.629
Latency (nontransgenic mice; [11]): 96.0961 and 35.7357 and 20.6873 and 46.6467 and 38.0714 and 35.4354 and 120.153 and 97.4308 and 17.4174 and 44.2776
Crossing Frequency (nontransgenic mice; ISRIB 0.1mpk): 1 and 2 and 5 and 0 and 4 and 3
Distance (nontransgenic mice; [12]): 2065.19 and 2495.79 and 2100.99 and 2299.57 and 1083.65 and 2015.54 and 1762.54 and 1784.58 and 1973.36 and 2419.28 and 2296.21 and 1746.93 and 2593.71 and 2297.94 and 2156.55
Latency (nontransgenic mice; [12]): 120.153 (10×) and 56.5566 and 93.994 and 110.677 and 97.7644 and 92.3257
Distance (nontransgenic mice; [13]): 2252.57 and 966.538 and 2215.71 and 2563.77 and 445.101 and 2147.24 and 1156.33 and 1018.37 and 2302.03 and 2270.34 and 1964.61 and 2179.88 and 2576.82 and 1685.38 and 1279.26
Latency (nontransgenic mice; [13]): 119.753 and 49.4828 and 119.686 and 120.153 (6×) and 23.4902 and 55.5555 and 58.6587 and 114.581 and 80.8141 and 66.8669
Distance (nontransgenic mice; [14]): 2747.59 and 190.327 and 1538.1 and 2351.74 and 241.5 and 531.856 and 1005.53 and 471.756 and 1003.73 and 604.685 and 1640.73 and 351.494 and 2299.54 and 202.419 and 1735.08
Latency (nontransgenic mice; [14]): 120.153 (5×) and 12.6126 and 98.365 and 13.9807 and 31.4314 and 77.5108 and 25.1251 and 47.047 and 26.9937 and 17.4174 and 12.5459
Crossing Frequency (nontransgenic mice; ISRIB 0.25mpk): 6 and 2 and 0 and 3 and 1 and 7
learning rates to find the hidden platform (latency or distance) vs vehicle (nontransgenic mice; MWM #1 training, 0.1 and 0.25 mpk): No differences in learning rates
Plasma concentration ([1]; Morris water maze #1 satellite mice): 65.3 ng/mL and 71.9 ng/mL
Plasma concentration ([1]; Morris water maze #2 satellite mice): 66.6 ng/mL and 65.6 ng/mL
